Laboratory results from US7314858B2, “Retrocyclins: antiviral and antimicrobial peptides” (priority 2001, dated 2008).
Values joined by “and” are separate entries in the source; they are usually repeats but may differ in a detail not shown here. Identical values can stand only once. “Also recorded” adds a separate entry of the source. Like-named read-outs stand apart in the source and are kept apart here. Where a SMILES comes first, the peptide text is derived from it. Bridges are numbered along the chain shown (N, C = ends). [ ]: non-standard residue; d: D form.

Legend:
human red blood cells = experiment: Hemagglutination of washed red blood cells in PBS
Description: Hemagglutination was tested by adding the stated concentration of peptide to a well comprising red blood cells (shown in FIG. 22). When the RBC are agglutinated, they clump together and settle rapidly and form a diffuse circle covering much of the bottom of the well. In the absence of agglutination, they settle more slowly and form a compact red button in the center of the well.
Sequences of retrocyclin-related peptides that were synthesized and either tested for activity against HIV-1 (see FIGS. 21A and 21B) and/or for their ability to cause human red blood cells to hemagglutinate or both. NT signifies not tested. Linear sequences appear in the table, but all peptides were cyclic and contained three intramolecular disulfide bonds. Hemagglutination of washed human red blood cells was tested in PBS, at peptide concentrations of 50, 25, 12.5 6.25 and 3.12 μg/ml. The lowest concentrations that caused hemagglutination are shown. Peptide concentrations were determined by amino acid analysis or by AUC (area under the curve) RP-HPLC analysis with reference to amino-acid analyzed standards.

HIV-1 strain JR-CSF = experiment: HIV-1 JR-CSF infection of CD4+ PBMC, p24 antigen ELISA; type: cell-based; details: JR-CSF (R5), peptide 10-20 μg/ml
Description: FIG. 5A-C. Anti-HIV-1 activity of retrocyclin. Two strains of HIV-1 and two types of human target cells were used. The IIIB strain is T-cell tropic (X4) and utilizes the CXCR4 co-receptor for entry; the JR-CSF strain is M-tropic (R5) and uses CCR5 for entry. PBMC signifies CD4^+-selected peripheral blood mononuclear cells. […] (A) Two concentrations of retrocyclin (2 μg/ml, 20 μg/ml), 20 μg/ml of the Rhesus circular defensin “RTD-1”, and 20 μg/ml of a horseshoe crab-derived peptide “T140”, reported to only prevent X4 infections, were tested in antiviral assays of against strain IIIB in H9 cells (n=2-6 per peptide; error bars indicate SEM). (B) To confirm our results with primary human cells, similar assays were performed utilizing IIIB virus and CD4^+ PBMC or (C) JR-CSF virus and CD4^+ PBMC. Peptides were not cytotoxic at indicated concentrations, measured by trypan blue exclusion. Average of duplicate experiments are reported for studies with PBMCs. Assay sensitivity=10 pg/ml.
(§1) Either HIV-1-permissive H9 cells were used as targets, or primary CD4^+ lymphocytes from HIV-1-seronegative donors generated from freshly purified peripheral blood mononuclear cells (PBMC) stimulated with a CD3-CD8 bispecific monoclonal antibody. After approximately 7 days, when 98% of these cells co-expressed CD3 and CD4, they were infected with HIV-1 with or without retrocyclin or other test peptide. These cells were maintained in RPMI containing 10% FCS supplemented with 2 mM glutamine, 100 U of penicillin/ml, 10 μg of streptomycin/ml, and 50 U of interleukin 2/ml (R10-50 media).
The p24 assay results shown in FIG. 9 are on a logarithmic scale. A horizontal reference line that passes through 100 on the ordinate scale corresponds to […] of p24 antigen. Results from 3 experiments (each performed with PBMC from a different donor) are shown.

HIV-1 strain IIIB = experiment: HIV-1 IIIB infection of CD4+ PBMC, p24 antigen ELISA; type: cell-based; details: CD4+ PBMC, IIIB (X4), peptide 10-20 μg/ml
Description: FIG. 5A-C. Anti-HIV-1 activity of retrocyclin. Two strains of HIV-1 and two types of human target cells were used. The IIIB strain is T-cell tropic (X4) and utilizes the CXCR4 co-receptor for entry; the JR-CSF strain is M-tropic (R5) and uses CCR5 for entry. PBMC signifies CD4^+-selected peripheral blood mononuclear cells. […] (A) Two concentrations of retrocyclin (2 μg/ml, 20 μg/ml), 20 μg/ml of the Rhesus circular defensin “RTD-1”, and 20 μg/ml of a horseshoe crab-derived peptide “T140”, reported to only prevent X4 infections, were tested in antiviral assays of against strain IIIB in H9 cells (n=2-6 per peptide; error bars indicate SEM). (B) To confirm our results with primary human cells, similar assays were performed utilizing IIIB virus and CD4^+ PBMC or (C) JR-CSF virus and CD4^+ PBMC. […] Average of duplicate experiments are reported for studies with PBMCs. Assay sensitivity=10 pg/ml.
as §1, with “After approximately 7 days, when 98% of these cells co-expressed CD3 and CD4, they were infected with HIV-1 with or without retrocyclin or other test peptide.” left out
Examining the effect of adding retrocyclin at various times pre- and post-HIV-1 infection. […] Primary CD4^+ PBMC were incubated with HIV-IIIB (FIG. 6) or HIV-JR-CSF for 3 hours in the presence or absence of 20 μg/ml retrocyclin. The cells were subsequently washed in media, and incubated an additional 9 days. Retrocyclin (20 μg/ml) was added back to some of the cultures at time points specified in FIG. 6 and infection was monitored by p24 ELISA as previously described. […]

[1] = washed human red blood cells in PBS

Question: For `CC[C@H](C)[C@@H]1NC(=O)CNC(=O)[C@H](CCCNC(=N)N)NC(=O)CNC(=O)[C@@H]2CSSC[C@H](NC1=O)C(=O)N[C@@H](CCCNC(=N)N)C(=O)N[C@H]1CSSC[C@H](NC(=O)[C@H](CCCNC(=N)N)NC(=O)[C@@H]3CSSC[C@H](NC(=O)[C@H]([C@@H](C)CC)NC1=O)C(=O)NCC(=O)N[C@@H](CCCCN)C(=O)N[C@@H](CCCNC(=N)N)C(=O)N[C@@H]([C@@H](C)CC)C(=O)N3)C(=O)N[C@@H]([C@@H](C)CC)C(=O)N2` [RC123A, Retrocyclin 2A] (cyclo(CGKRICRCICGRGICRCI); disulfide 1-6, 8-17, 10-15), which “Hemagglutination seen at a concentration of (lowest concentration that caused hemagglutination)” value (from here on “Hemagglutination seen at a concentration”) (human red blood cells; [1]) is on record?
Answer: Its value is 50 µg/mL.

Question: And the “hemagglutination compared with retrocyclin” value (human red blood cells; [1])?
Answer: Its value is “less hemagglutination than retrocyclin-1 or retrocyclin-2”.

Question: For `CC[C@H](C)[C@@H]1NC(=O)CNC(=O)[C@H](CCCNC(=N)N)NC(=O)CNC(=O)[C@@H]2CSSC[C@H](NC1=O)C(=O)N[C@@H](CCCNC(=N)N)C(=O)N[C@H]1CSSC[C@H](NC(=O)[C@H](CCCNC(=N)N)NC(=O)[C@@H]3CSSC[C@H](NC(=O)[C@H]([C@@H](C)CC)NC1=O)C(=O)NCC(=O)N[C@@H](CCCCN)C(=O)N[C@@H](CCCCN)C(=O)N[C@@H]([C@@H](C)CC)C(=O)N3)C(=O)N[C@@H]([C@@H](C)CC)C(=O)N2` [RC123B, Retrocyclin 2B] (cyclo(CGKKICRCICGRGICRCI); disulfide 1-6, 8-17, 10-15), which “Hemagglutination seen at a concentration” value (human red blood cells; [1]) is on record?
Answer: The value was 6.25 µg/mL.

Question: With `CC[C@H](C)[C@@H]1NC(=O)CNC(=O)[C@H](CCCNC(=N)N)NC(=O)CNC(=O)[C@@H]2CSSC[C@H](NC1=O)C(=O)N[C@@H](CCCNC(=N)N)C(=O)N[C@H]1CSSC[C@H](NC(=O)[C@H](CCCNC(=N)N)NC(=O)[C@@H]3CSSC[C@H](NC(=O)[C@H]([C@@H](C)CC)NC1=O)C(=O)NCC(=O)N[C@@H](CCCNC(=N)N)C(=O)N[C@@H](CCCCN)C(=O)N[C@@H]([C@@H](C)CC)C(=O)N3)C(=O)N[C@@H]([C@@H](C)CC)C(=O)N2` [RC123C, Retrocyclin 2C] (cyclo(CGRGICRCICGRKICRCI); disulfide 1-6, 8-17, 10-15) as the compound, how does the “Hemagglutination seen at a concentration” value (human red blood cells; [1]) read?
Answer: Its value is 50 µg/mL.

Question: And the “hemagglutination compared with retrocyclin” value (human red blood cells; [1])?
Answer: Its value is “less hemagglutination than retrocyclin-1 or retrocyclin-2”.

Question: How did the “Hemagglutination seen at a concentration” value (human red blood cells; [1]) turn out when `CC[C@H](C)[C@@H]1NC(=O)CNC(=O)[C@H](CCCNC(=N)N)NC(=O)CNC(=O)[C@@H]2CSSC[C@H](NC1=O)C(=O)N[C@@H](CCCNC(=N)N)C(=O)N[C@H]1CSSC[C@H](NC(=O)[C@H](CCCCN)NC(=O)[C@@H]3CSSC[C@H](NC(=O)[C@H]([C@@H](C)CC)NC1=O)C(=O)NCC(=O)N[C@@H](CCCNC(=N)N)C(=O)N[C@@H](CCCNC(=N)N)C(=O)N[C@@H]([C@@H](C)CC)C(=O)N3)C(=O)N[C@@H]([C@@H](C)CC)C(=O)N2` [RC123D, Retrocyclin 2D] (cyclo(CGRGICRCICGRRICKCI); disulfide 1-6, 8-17, 10-15) was run?
Answer: Its value is 50 µg/mL.

Question: With `CC[C@H](C)[C@@H]1NC(=O)CNC(=O)[C@H](CCCNC(=N)N)NC(=O)CNC(=O)[C@@H]2CSSC[C@H](NC1=O)C(=O)N[C@@H](CCCCN)C(=O)N[C@H]1CSSC[C@H](NC(=O)[C@H](CCCNC(=N)N)NC(=O)[C@@H]3CSSC[C@H](NC(=O)[C@H]([C@@H](C)CC)NC1=O)C(=O)NCC(=O)N[C@@H](CCCNC(=N)N)C(=O)N[C@@H](CCCNC(=N)N)C(=O)N[C@@H]([C@@H](C)CC)C(=O)N3)C(=O)N[C@@H]([C@@H](C)CC)C(=O)N2` [RC123E, Retrocyclin 2E] (cyclo(CGRGICKCICGRRICRCI); disulfide 1-6, 8-17, 10-15) as the compound, how does the “Hemagglutination seen at a concentration” value (human red blood cells; [1]) read?
Answer: The value was 25 µg/mL.

Question: How did the “Hemagglutination seen at a concentration” value (human red blood cells; [1]) turn out when `CC[C@@H](C)[C@H]1NC(=O)CNC(=O)[C@@H](CCCNC(=N)N)NC(=O)CNC(=O)[C@H]2CSSC[C@@H](NC1=O)C(=O)N[C@H](CCCNC(=N)N)C(=O)N[C@@H]1CSSC[C@@H](NC(=O)[C@@H](CCCNC(=N)N)NC(=O)[C@H]3CSSC[C@@H](NC(=O)[C@@H]([C@H](C)CC)NC1=O)C(=O)NCC(=O)N[C@H](CCCNC(=N)N)C(=O)NCC(=O)N[C@H]([C@H](C)CC)C(=O)N3)C(=O)N[C@H]([C@H](C)CC)C(=O)N2` [RC-112, enantio-retrocyclin] (cyclo(G[dI][dC][dR][dC][dI][dC]G[dR]G[dI][dC][dR][dC][dI][dC]G[dR]); disulfide 3-16, 5-14, 7-12) was run?
Answer: The value was 50 µg/mL.

Question: And the “hemagglutination compared with retrocyclin” value (human red blood cells; [1])?
Answer: Its value is “less hemagglutination than retrocyclin-1 or retrocyclin-2”.

Question: Which “Hemagglutination seen at a concentration” value (human red blood cells; [1]) does the source give for `CC[C@@H](C)[C@H]1NC(=O)CNC(=O)[C@@H](CCCCN)NC(=O)CNC(=O)[C@H]2CSSC[C@@H](NC1=O)C(=O)N[C@H](CCCNC(=N)N)C(=O)N[C@@H]1CSSC[C@@H](NC(=O)[C@@H](CCCNC(=N)N)NC(=O)[C@H]3CSSC[C@@H](NC(=O)[C@@H]([C@H](C)CC)NC1=O)C(=O)NCC(=O)N[C@H](CCCNC(=N)N)C(=O)NCC(=O)N[C@H]([C@H](C)CC)C(=O)N3)C(=O)N[C@H]([C@H](C)CC)C(=O)N2` [RC-113, enantio-RC-101] here?
Answer: The value was 50 µg/mL.

Question: What about the “hemagglutination compared with retrocyclin” value (human red blood cells; [1]) of the same compound?
Answer: Its value is “less hemagglutination than retrocyclin-1 or retrocyclin-2”.

Question: How did the “Hemagglutination seen at a concentration” value (human red blood cells; [1]) turn out when `CC[C@H](C)[C@@H]1NC(=O)CNC(=O)[C@H](CCCCN)NC(=O)CNC(=O)[C@@H]2CSSC[C@H](NC1=O)C(=O)N[C@@H](CCCNC(=N)N)C(=O)N[C@H]1CSSC[C@H](NC(=O)[C@H](CCCNC(=N)N)NC(=O)[C@@H]3CSSC[C@H](NC(=O)[C@H](Cc4ccc(O)cc4)NC1=O)C(=O)NCC(=O)N[C@@H](CCCNC(=N)N)C(=O)NCC(=O)N[C@@H]([C@@H](C)CC)C(=O)N3)C(=O)N[C@@H]([C@@H](C)CC)C(=O)N2` [RC-114, RC-101/103 hybrid] (cyclo(CGKGICRCYCGRGICRCI); disulfide 1-6, 8-17, 10-15) was run?
Answer: The value was 200 µg/mL and > 150 µg/mL.

Question: What about the “hemagglutination compared with retrocyclin” value (human red blood cells; [1]) of the same compound?
Answer: Its value is “much less hemagglutination than retrocyclin”.

Question: “I2Y-Retrocyclin (cyclo(GYCRCICGRGICRCICGR); disulfide (positions not given here); ring closure inferred; not fully specified (bridges)) [RC-104, cyclic …]” was tested. Which “inhibition of HIV-1 replication (p24)” value (HIV-1 strain JR-CSF) did it give?
Answer: Its value is “considerable ability to protect cells; also recorded: substantial activity”.

Question: What about the “inhibition of HIV-1 replication (p24)” value (HIV-1 strain IIIB) of the same compound?
Answer: The value was “relatively ineffective”.

Question: “I11Y-Retrocyclin (cyclo(GICRCICGRGYCRCICGR); disulfide (positions not given here); ring closure inferred; not fully specified (bridges)) [RC-105]” was tested. Which “inhibition of HIV-1 replication (p24)” value (HIV-1 strain IIIB) did it give?
Answer: The value was “either inactive or only modestly active”.

Question: For R9Y-Retrocyclin [RC-107], which “inhibition of HIV-1 replication (p24)” value (HIV-1 strain JR-CSF) is on record?
Answer: Its value is “lack of efficacy”.

Question: And the “inhibition of HIV-1 replication (p24)” value (HIV-1 strain IIIB)?
Answer: Its value is “lack of efficacy”.

Question: “R→K Retrocyclin-1 (cyclo(GICKCICGKGICKCICGR); disulfide (positions not given here); ring closure inferred; not fully specified (bridges)) [RC119]” was tested. Which “Hemagglutination seen at a concentration” value (human red blood cells) did it give?
Answer: Its value is 50 µg/mL.
